Like-named read-outs stand apart in the source and are kept apart here.
Columns and labels:
CB1 [1] = molecular target: T1, CB1 (Rattus norvegicus, UniProt P20272); experiment: Rat CB1 receptor binding using brain membrane, [3H]SR141716A displacement (Protocol I); parameters: CB1 receptor present in a rat brain membrane preparation; from tissue; host or cells: rat brain membrane; inhibition: dose or concentration left out as unconfirmed; settings: for inhibition: 1 h
hCB2 = hCB2 (Homo sapiens, UniProt P34972); experiment: In vitro binding assay using hCB2-CHO membranes, [3H]-CP-55,940 displacement (Protocol IV); parameters: expressed in transfected cells; host or cells: CHO (hCB2-CHO, generated in-house); settings: for inhibition at 0.3 µM: 1 h, read-out: % Displacement Protocol IV
Procedure, shortened: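 Displacement of [3H]-CP-55,940 (0.75 nM) from membranes of CHO cells expressing human CB2 (25-50 μg) was measured in Tris-BSA buffer pH 7.4 with 5 mM MgCl2, 1 mM EDTA, 0.1% BSA, 1 h at 30 °C. Test compounds were at 300 nM final; nonspecific binding defined with 0.5 μM CP-55,940. Values are % displacement of specific binding.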

CB1 [2] = molecular target: T1, CB1; experiment: GTPγS binding assay, CB1 functional assay in rat cerebellar membrane (Protocol VIII); format: biochemical; parameters: 10 μg rat cerebellum membrane; from tissue; host or cells: rat cerebellum membrane, prepared in-house; settings: for activation at 1 µM: 1 h, read-out: Per Se % Stimulation; for inhibition at 1 µM: read-out: % Inhibition of WIN-55212-2 induced stimulation
Procedure, shortened: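 Rat cerebellar membranes (10 μg) incubated 1 h at 30 °C with 0.2 nM [35S]GTPγS, 50 μM GDP, and compound at 1 μM or 300 nM, alone or with 1 μM WIN 55,212-2, in Tris/MgCl2/EGTA/NaCl pH 7.4. Filter-bound radioactivity counted; percent stimulation calculated against basal specific binding (nonspecific defined by 10 μM GTPγS).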

[3] = rat brain membrane, [3H]SR141716A displacement, read-out: % Displacement Protocol I
[4] = hCB2-CHO membranes, [3H]-CP-55,940 displacement
[5] = GTPγS binding over basal, rat cerebellar membrane, tested at 1 uM
[6] = GTPγS binding, tested at 1 uM in presence of 1 μM WIN 55,212-2

Chain of hCB2 (P34972 whole entry): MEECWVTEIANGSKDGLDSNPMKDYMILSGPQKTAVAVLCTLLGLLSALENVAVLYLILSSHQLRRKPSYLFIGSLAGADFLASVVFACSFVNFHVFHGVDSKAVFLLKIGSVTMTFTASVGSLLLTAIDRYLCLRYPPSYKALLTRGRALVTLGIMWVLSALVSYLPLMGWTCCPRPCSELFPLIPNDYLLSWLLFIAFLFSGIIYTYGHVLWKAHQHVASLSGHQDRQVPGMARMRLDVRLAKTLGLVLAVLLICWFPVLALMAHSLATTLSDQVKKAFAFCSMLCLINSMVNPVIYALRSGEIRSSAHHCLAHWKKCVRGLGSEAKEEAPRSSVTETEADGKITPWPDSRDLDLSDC
T1 sequence (P20272 whole entry): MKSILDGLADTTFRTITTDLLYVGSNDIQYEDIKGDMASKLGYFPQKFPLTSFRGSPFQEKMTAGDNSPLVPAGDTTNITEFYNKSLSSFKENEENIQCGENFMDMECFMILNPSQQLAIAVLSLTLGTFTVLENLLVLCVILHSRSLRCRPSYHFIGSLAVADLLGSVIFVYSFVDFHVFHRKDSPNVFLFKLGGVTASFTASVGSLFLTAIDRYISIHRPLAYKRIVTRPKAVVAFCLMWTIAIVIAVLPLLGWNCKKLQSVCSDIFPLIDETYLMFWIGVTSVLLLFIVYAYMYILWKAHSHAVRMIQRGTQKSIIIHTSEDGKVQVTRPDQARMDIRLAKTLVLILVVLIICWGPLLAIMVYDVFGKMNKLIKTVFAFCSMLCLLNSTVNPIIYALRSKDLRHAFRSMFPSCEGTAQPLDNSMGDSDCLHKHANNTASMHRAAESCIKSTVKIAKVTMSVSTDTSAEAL

Row | SMILES | inhibition (CB1 [1]; [3]) [%] | inhibition at 0.3 µM (hCB2; [4]) [%] | melting point [°C] | activation at 1 µM (CB1 [2]; [5]) [%] | inhibition at 1 µM (CB1 [2]; [6]) [%] | further results
1 | CN(NC(=O)c1nn(-c2ccc(Cl)cc2)c2c1C1CCC2C1)C1CCCCC1 (stereo not drawn) [Example 213, N(3)-[(N-Cyclohexyl-N-methyl)amino]-1-(4-chlorophenyl)-4,5,6,7-tetrahydro-1H-4,7-methano-indazole-3-carboxamide] | 48.5 | 71.8 | 62 |  |  | 
2 | O=C(NNc1ccccc1Br)c1nn(-c2ccc(Cl)cc2Cl)c2c1C1CCC2C1 (stereo not drawn) [Example 263, N(3)-[(2-Bromophenyl)amino]-1-(2,4-dichlorophenyl)-4,5,6,7-tetrahydro-1H-4,7-methano-indazole-3-carboxamide] | 69.1 | 79 | 159 |  |  | 
3 | O=C(NCc1ccc(Cl)cc1Cl)c1nn(-c2ccc(Cl)cc2Cl)c2c1C1CCC2C1 (stereo not drawn) [Example 251, N(3)-(2,4-Dichlorobenzyl)-1-(2,4-dichlorophenyl)-4,5,6,7-tetrahydro-1H-4,7-methano-indazole-3-carboxamide] | 42.3 | 60.2 | 57 to 59 |  |  | 
4 | O=C(NC1CCCCC1)c1nn(-c2ccc(Br)cc2)c2c1C1CCC2C1 (stereo not drawn) [Example 275, N(3)-Cyclohexyl-1-(4-bromophenyl)-4,5,6,7-tetrahydro-1H-4,7-methano-indazole-3-carboxamide] | 38.8 | 72.3 | 164 |  |  | 
5 | O=C(NNc1ccc(Cl)cc1Cl)c1nn(-c2ccc(Cl)cc2Cl)c2c1C1CCC2C1 (stereo not drawn) [Example 260, N(3)-[(2,4-Dichlorophenyl)amino]-1-(2,4-dichlorophenyl)-4,5,6,7-tetrahydro-1H-4,7-methano-indazole-3-carboxamide] | 84.4 | 80.2 |  | 38 | 78.8 | 
6 | O=C(NCc1ccccc1Cl)c1nn(-c2ccc(Cl)cc2)c2c1C1CCC2C1 (stereo not drawn) [Example 221, N(3)-(2-Chlorobenzyl)-1-(4-chlorophenyl)-4,5,6,7-tetrahydro-1H-4,7-methano-indazole-3-carboxamide] |  |  | 119 to 122 | -16.7 | 95.7 | inhibition (CB1 [1]; read-out: % Displacement Protocol I, rat brain membrane, [3H]SR141716A displacement): 68.6%; inhibition at 0.3 µM (hCB2): 75.7%
7 | O=C(NN1CCCCC1)c1nn(-c2ccc(Cl)cc2)c2c1C1CC3CC(C1)CC2C3 [Example 140, N(7)-Piperidino-5-(4′-chlorophenyl)-5,6-diazatetracyclo[7.3.1.1^3,11.0^4,8]tetradeca-4(8)-6-diene-7-carboxamide] |  |  |  |  |  | Per Se % Stimulation (CB1 [2]; [5]): 24.9%; % Inhibition of WIN-55212-2 induced stimulation (CB1 [2]; [6]): 71.9%; % Displacement Protocol I (CB1 [1]; rat brain membrane, [3H]SR141716A displacement): 50.4%; % Displacement Protocol IV (hCB2; [4]): 15.79%
8 | O=C(NNc1ccccc1Cl)c1nn(-c2ccc(Cl)cc2Cl)c2c1C1CCC2C1 (stereo not drawn) [Example 257, N(3)-[(2-Chlorophenyl)amino]-1-(2,4-dichlorophenyl)-4,5,6,7-tetrahydro-1H-4,7-methano-indazole-3-carboxamide] | 73.5 | 83.9 | 180 to 183 | -5.1 | 48.3 | 

Reference: patent publication US7923465B2, “Cannabinoid receptor ligands, pharmaceutical compositions containing them, and process for their preparation” (priority 2005, dated 2011)
